# Measured values reported in patent US20170367996A1, “Use Of Xanthophyll Carotenoids To Improve Visual Performance And Neural Efficiency” (University of Georgia Research Foundation, Inc., priority 2011, published 2017).
# Experiments:
# Type in all cases: in vivo, human
# [1] = system: college baseball players; assay: Macular pigment optical density (MPOD) by customized heterochromatic flicker photometry, zeaxanthin supplementation study; conditions: for MPOD (Example 2, preliminary data): 20 mg/d supplementation ongoing
# Procedure: (§1) Subjects: Seven college baseball players (M=20.3±0.58 years), supplemented with 20 mg/Z/day for 3-months, participated in this study. The visual function parameters MPOD, disability glare, photostress recovery time, and contrast enhancement were determined. The neural efficiency parameters Fixed Reaction Time (FRT); Variable Reaction Time (VRT); and Coincidence Anticipation Timing (CAT) were determined.
# • Customized HFP [3]—Macular Metrics Corp., Providence, R.I.,
# [2] = system: college baseball players; assay: Photostress recovery time (PR); conditions: 20 mg/Z/day for 3-months; supplemented subjects
# Procedure: as §1
# (§2) Stimuli presented in three-channel Maxwellian-view optical system (1 kW xenon-arc light source).
# • 570 nm target (100% contrast; 5 cpd). • 5 second exposure to bleaching photostressor (5° diameter disk; xenon-white light of log 2.5 μW/cm2 intensity). • Threshold: time to recover visibility of target.
# [3] = system: college baseball players; assay: Glare disability (GL); conditions: 20 mg/Z/day for 3-months
# Procedure: as §1, §2
# (§3) • 570 nm target (100% contrast, 5 cycles per degree—cpd); 10° inner, 12° outer diameter annulus comprised of broad-band xenon light (see FIG. 1 a). • Threshold: intensity of annulus required to completely veil target.
# [4] = system: college baseball players; assay: Contrast enhancement (CE); conditions: 20 mg/Z/day for 3-months
# Procedure: as §1, §2
# (§4) • 600 nm target (100% contrast grating, 5 cpd); 460 nm surround (see FIG. 1A(b)). • Threshold: intensity of background required to obscure edge between target and surround.
# [5] = system: college baseball players; assay: Fixed and variable position reaction time (FRT/VRT); conditions: 20 mg/Z/day for 3-months
# Procedure: as §1
# • Task: button press in response to LED repeatedly presented at same position (FRT) or random location (VFT) along the 120 LED linear track. • 60 trials; inter-trial intervals varied between 1000-3000 ms
# [6] = system: college baseball players; assay: Coincidence anticipation timing (CAT); conditions: 20 mg/Z/day for 3-months; at the highest frequency
# Procedure: as §1
# • Task: button press to indicate when a light bar (traveling along 120 LED linear track) reached a specified point. • Velocity randomly varied between 5, 10, 15, and 20 MPH (15 trials for each speed, randomly presented; inter-trial intervals randomly varied between 1000-3000 ms).
# [7] = system: college baseball players; assay: Static and dynamic visual performance after zeaxanthin supplementation (Example 2); conditions: 20 mg/d supplementation ongoing; preliminary data
# Description: Baseball performance requires the ability to perceive and react to temporally varying stimuli under lighting conditions that are known to be most detrimental to visual function (i.e., short-wave light). Macular pigment (MP) lutein (L) and zeaxanthin (Z) in the retina—is known to improve performance under such conditions and may also improve neural efficiency. The purpose of this study was to assess static and dynamic visual performance in college baseball players in order to: • a) Define performance ability in athletes and non-athletes matched for age and MP (N=18); and, • b) Improve athletes' performance via supplementation.
# as §2, §3, §4
# • 570 nm target (100% contrast; 5 cpd). • 5 second exposure to bleaching photostressor (5° diameter disk; xenon-white light of log 2.5 μW/cm2 intensity). • Threshold: time to recover visibility of target. […]
smiles,measurement,setting,value
"CC1=C(/C=C/C(C)=C/C=C/C(C)=C/C=C/C=C(C)/C=C/C=C(C)/C=C/C2=C(C)C[C@@H](O)CC2(C)C)C(C)(C)C[C@H](O)C1 [Zeaxanthin, zeaxanthin]",MPOD in supplemented subjects,"[1]; 20 mg/Z/day for 3-months, three subjects completed",increased
same,"MPOD (Example 2, preliminary data)",[1],increases
same,"MPOD (Example 2, preliminary data)",[1]; listed as zeaxanthin,Increases
same,12-week MPOD,"[1]; one subject, baseline MPOD 0.7 at 30-min of eccentricity, 20 mg/d, 12 weeks",0.77
same,Photostress recovery time,[2],decreased
same,Glare (disability glare),[3],Early improvements
same,Contrast enhancement,[4],Early improvements
same,FRT,[5],improved
same,VRT,[5],improved
same,CAT accuracy,[6],improved
same,Dynamic visual performance,[7],improvement
same,Static visual performance,[7],improvement
